PMC10290130, “The potential of phenothiazinium dyes as cytotoxicity markers in cisplatin-treated cells” (Scientific Reports, 2023)
Where two headings read alike, the source gives them in different places.

Legend:
[1] = system: Vero cells and fibroblasts; assay: DMSO cytotoxicity, 72 h, read with phenothiazinium dyes, NR or MTT; type: cell-based, African green monkey; human; details: DMSO in concentrations above 5%
Experimental: (§1) Cells were treated with either DMSO (Vero cells and primary fibroblasts) or cisplatin (LLC-MK2, MCF 10A, and MDA-MB-231). […] After treatment with DMSO and cisplatin, labeling with MTT or NR was performed as described previously[27],[28] with modifications[29],[30]. Cells incubated with phenothiazinium dyes were processed by the same protocol used for NR. […] The cells incubated with MTT were diluted with 100 µl of DMSO. The plates were read at 540 nm (NR) or 570 nm (MTT) in an ELISA reader (Epoch Biotek). Three (LLC-MK2 and MDA-MB-231) and two (Vero cells, human primary fibroblasts and MCF 10A) independent experiments were performed.
(§2) Values for area under the curve were calculated with GraphPad Prism 8.0 software (San Diego, California USA). For cells incubated with DMSO or cisplatin, the percentage of inhibition was calculated from the absorbance of treated samples relative to their non-treated controls. These values were used to calculate the half-maximal inhibitory concentration (IC50) of cisplatin and DMSO, which was done with Compusyn software (version 1.0)[31].

Vero cells [2] = details: 72 h of incubation; cited from earlier work
Vero cells [3] = assay: Light microscopy of phenothiazinium dye accumulation in cells; type: cell-based, African green monkey; details: during incubation with cells; phenothiazinium dyes 100 µM, NR 50 µg/ml
Experimental: The accumulation of phenothiazine dyes in cells was detected by light and confocal microscopies. Firstly, Vero cells were incubated with MB, NMB, TBO, and DMMB (100, 50, 25 and 12.5 µM) for 3 h, 37 °C, 5% CO2 and washed with PBS. […] For confocal detection of phenothiazinium dyes, Vero cell cultures were incubated with 10 μM of MB, NMB, TBO or DMMB for 30 min, 37 °C, with 5% CO2. For all procedures, non-treated controls were incubated with RPMI under the same conditions. The cultures were washed with PBS and treated with trypsin for 10 min, 37 °C and 5% CO2. The cells were transferred to slides and analyzed by confocal microscopy with excitation/emission wavelengths of 543/600 nm, respectively.

[4] = set-up: method as in PMID 23758207; details: cited from earlier work
MCF 10A = assay: Cisplatin cytotoxicity, 72 h, read with phenothiazinium dyes, NR or MTT; type: cell-based, human
Experimental: as §1, §2

MDA-MB-231 [5] = assay: as above; type: cell-based, human
Experimental: as §1, §2

LLC-MK2 = assay: as above; type: cell-based, rhesus monkey
Experimental: as §1, §2

MDA-MB-231 [6] = system: MDA-MB-231; set-up: method as in PMID 33261142; details: read-out: concentration inhibiting 50% of growth; cited from earlier work

**Q.** Which cell inhibition [1] does the source give for `C[S+](C)[O-]` [DMSO, dimethyl sulfoxide] here?
**A.** The cell inhibition was over 70%.

**Q.** For `Cc1cc(N(C)C)cc2[s+]c3cc(N(C)C)cc(C)c3nc12.[Cl-]` [DMMB, 3,7-bis(dimethylamino)-1,9-dimethylphenothiazin-5-ium chloride], which “concentrations with toxic effects” value (Vero cells [2]) is on record?
**A.** Its value is “below 10 µM”.

**Q.** With `Cc1cc2nc3ccc(N(C)C)cc3nc2cc1N.Cl` [NR, 3-amino-7-dimethylamino-2-methylphenazine hydrochloride] as the compound, how does the “dye precipitation / crystal formation” value (Vero cells [3]) read?
**A.** The value was “Crystals of NR formed”.

**Q.** And the pKa [4]?
**A.** The pKa was 6.9.

**Q.** And the “log P” value ([4]; free base state)?
**A.** The value was 1.9.

**Q.** Which results are given for `N.N.[Cl][Pt][Cl]` [cisplatin, cis-diammineplatinum (II) dichloride]?
**A.** concentrations at which cells were resistant (MCF 10A): below 25 µM; IC50 (MCF 10A; indicator DMMB): 14.8 µM; IC50 (MCF 10A; indicator MB): 9.26 µM; IC50 (MCF 10A; indicator MTT): 11.9 µM; IC50 (MCF 10A; indicator NMB): 17.1 µM; IC50 (MCF 10A; indicator NR): 13.5 µM; IC50 (MCF 10A; indicator TBO): 14.6 µM; cell inhibition (MDA-MB-231 [5]; cisplatin at concentrations above 12.5 µM): more than 50%; IC50 (MDA-MB-231 [5]; indicator NMB): 1.83 µM; IC50 (MDA-MB-231 [5]; indicator NR): 8.44 µM; concentrations at which cells were resistant (LLC-MK2): < 50 µM; IC50 (LLC-MK2; indicator DMMB): 29.5 µM; IC50 (LLC-MK2; indicator MB): 19 µM; IC50 (LLC-MK2; indicator MTT): 25.2 µM; IC50 (LLC-MK2; indicator NMB): 28.2 µM; IC50 (LLC-MK2; indicator NR): 34.9 µM; IC50 (LLC-MK2; indicator TBO): 30.4 µM; IC50 (MDA-MB-231 [6]): 6 µM
